Results published in ChEMBL document CHEMBL1201862, “PubChem BioAssay data set” (2004).
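Interpolation was linear, between the two tested concentrations surrounding the appropriate level; five concentrations were tested over 48 hours in 96-well plates. At the GI50, growth is halved.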 Active and inactive are the calls of the source. Rule as the data show it: active = GI50 up to about 1.1 µM and inactive = higher.

Legend:
Test in all cases: inhibition of tumour cell growth, NCI panel, 48 h
UO-31 = tested on: UO-31
IGROV-1 = tested on: IGROV-1
DU-145 = tested on: DU-145
786-0 = tested on: 786-0
TK-10 = tested on: TK-10
SW-620 = tested on: SW-620
MDA-MB-435 = tested on: MDA-MB-435
MDA-MB-231 = tested on: MDA-MB-231
DLD-1 = tested on: DLD-1
KM12 = tested on: KM12
COLO 205 = tested on: COLO 205
SF-268 = tested on: SF-268
MDA-N = tested on: MDA-N
Hs-578T = tested on: Hs-578T
HCT-15 = tested on: HCT-15
SK-MEL-5 = tested on: SK-MEL-5
M14 = tested on: M14
OVCAR-5 = tested on: OVCAR-5
SF-295 = tested on: SF-295
Malme-3M = tested on: Malme-3M
BT-549 = tested on: BT-549
NCI-H460 = tested on: NCI-H460
DMS-273 = tested on: DMS-273
PC-3 = tested on: PC-3
RPMI-8226 = tested on: RPMI-8226
CCRF-CEM = tested on: CCRF-CEM
MCF7 = tested on: MCF7
MOLT-4 = tested on: MOLT-4
NCI-H226 = tested on: NCI-H226
HOP-18 = tested on: HOP-18
HCC 2998 = tested on: HCC 2998
KM-20L2 = tested on: KM-20L2
SK-OV-3 = tested on: SK-OV-3
OVCAR-3 = tested on: OVCAR-3
SF-539 = tested on: SF-539
NCI/ADR-RES = tested on: NCI/ADR-RES
T47D = tested on: T47D
OVCAR-4 = tested on: OVCAR-4
LOX IMVI = tested on: LOX IMVI
UACC-257 = tested on: UACC-257
A498 = tested on: A498
SK-MEL-28 = tested on: SK-MEL-28
M19-MEL = tested on: M19-MEL
SN12C = tested on: SN12C
A549 = tested on: A549
SNB-75 = tested on: SNB-75
SR = tested on: SR
HT-29 = tested on: HT-29
ACHN = tested on: ACHN
NCI-H23 = tested on: NCI-H23
OVCAR-8 = tested on: OVCAR-8
CAKI-1 = tested on: CAKI-1
NCI-H522 = tested on: NCI-H522
SNB-19 = tested on: SNB-19
HOP-92 = tested on: HOP-92
RXF 393 = tested on: RXF 393
HL-60 = tested on: HL-60
K562 = tested on: K562
SK-MEL-2 = tested on: SK-MEL-2
UACC-62 = tested on: UACC-62
U-251 = tested on: U-251
HOP-62 = tested on: HOP-62
EKVX = tested on: EKVX
HCT-116 = tested on: HCT-116
SNB-78 = tested on: SNB-78
LXFL 529 = tested on: LXFL 529

CC(C)[C@](O)(C(=O)OCC1=CC[N+]2([O-])CC[C@@H](O)[C@@H]12)[C@H](C)O (stereo not given in full) [INDICINE N-OXIDE]
GI50 (UO-31): > 10 mM (inactive) | GI50 (IGROV-1): > 9.33 mM (inactive) | GI50 (DU-145): > 10 mM (inactive) | GI50 (786-0): > 9.27 mM (inactive) | GI50 (TK-10): > 10 mM (inactive) | GI50 (SW-620): > 10 mM (inactive) | GI50 (MDA-MB-435): > 10 mM (inactive) | GI50 (MDA-MB-231): > 10 mM (inactive) | GI50 (DLD-1): > 10 mM (inactive) | GI50 (KM12): > 10 mM (inactive) | GI50 (COLO 205): > 5.94 mM (inactive) | GI50 (SF-268): > 9.93 mM (inactive) | GI50 (MDA-N): > 10 mM (inactive) | GI50 (Hs-578T): > 5.43 mM (inactive) | GI50 (HCT-15): > 10 mM | GI50 (SK-MEL-5): > 7 mM (inactive) | GI50 (M14): > 10 mM (inactive) | GI50 (OVCAR-5): > 10 mM (inactive) | GI50 (SF-295): > 10 mM (inactive) | GI50 (Malme-3M): > 9.42 mM (inactive) | GI50 (BT-549): > 10 mM (inactive) | GI50 (NCI-H460): 5.96 mM (inactive) | GI50 (DMS-273): 6.08 mM (inactive) | GI50 (PC-3): > 10 mM (inactive) | GI50 (RPMI-8226): > 10 mM (inactive) | GI50 (CCRF-CEM): > 9.16 mM (inactive) | GI50 (MCF7): > 10 mM (inactive) | GI50 (MOLT-4): 8.57 mM (inactive) | GI50 (NCI-H226): > 10 mM (inactive) | GI50 (HOP-18): > 10 mM (inactive) | GI50 (HCC 2998): > 10 mM (inactive) | GI50 (KM-20L2): > 10 mM (inactive) | GI50 (SK-OV-3): > 10 mM (inactive) | GI50 (OVCAR-3): 9.91 mM (inactive) | GI50 (SF-539): > 9.08 mM (inactive) | GI50 (NCI/ADR-RES): > 10 mM (inactive) | GI50 (T47D): > 10 mM (inactive) | GI50 (OVCAR-4): > 10 mM (inactive) | GI50 (LOX IMVI): > 7.8 mM (inactive) | GI50 (UACC-257): > 10 mM (inactive) | GI50 (A498): 8.97 mM (inactive) | GI50 (SK-MEL-28): > 10 mM (inactive) | GI50 (M19-MEL): > 10 mM (inactive) | GI50 (SN12C): 8.87 mM (inactive) | GI50 (A549): 5.96 mM (inactive) | GI50 (SNB-75): > 9.75 mM (inactive) | GI50 (SR): 4.63 mM (inactive) | GI50 (HT-29): > 10 mM (inactive) | GI50 (ACHN): 4.6 mM (inactive) | GI50 (NCI-H23): > 6 mM (inactive) | GI50 (OVCAR-8): 8.11 mM (inactive) | GI50 (CAKI-1): 6.52 mM (inactive) | GI50 (NCI-H522): > 7.41 mM (inactive) | GI50 (SNB-19): > 10 mM (inactive) | GI50 (HOP-92): > 9.73 mM (inactive) | GI50 (RXF 393): 7.46 mM (inactive) | GI50 (HL-60): 3.23 mM (inactive) | GI50 (K562): > 10 mM (inactive) | GI50 (SK-MEL-2): > 10 mM (inactive) | GI50 (UACC-62): 7.21 mM (inactive) | GI50 (U-251): > 8.57 mM (inactive) | GI50 (HOP-62): 3.59 mM (inactive) | GI50 (EKVX): > 9.06 mM (inactive) | GI50 (HCT-116): > 10 mM (inactive) | GI50 (SNB-78): > 10 mM (inactive)

COc1cc(C2C(Cl)C(=O)N2NC(=O)c2ccc(NC(C)=O)cc2)cc(OC)c1OC (stereo not given)
GI50 (UO-31): > 0.1 mM (inactive) | GI50 (IGROV-1): > 0.1 mM (inactive) | GI50 (TK-10): > 0.1 mM (inactive) | GI50 (SW-620): > 0.1 mM (inactive) | GI50 (DLD-1): > 0.1 mM (inactive) | GI50 (KM12): > 0.1 mM (inactive) | GI50 (COLO 205): > 0.1 mM (inactive) | GI50 (SF-268): > 0.1 mM (inactive) | GI50 (SK-MEL-5): > 0.1 mM (inactive) | GI50 (OVCAR-5): > 0.1 mM (inactive) | GI50 (SF-295): > 0.1 mM (inactive) | GI50 (Malme-3M): > 0.1 mM (inactive) | GI50 (NCI-H460): > 0.1 mM (inactive) | GI50 (RPMI-8226): > 0.1 mM (inactive) | GI50 (CCRF-CEM): > 0.1 mM (inactive) | GI50 (MOLT-4): > 0.1 mM (inactive) | GI50 (NCI-H226): > 0.1 mM (inactive) | GI50 (HOP-18): > 0.1 mM (inactive) | GI50 (LXFL 529): > 0.1 mM (inactive) | GI50 (SK-OV-3): > 0.1 mM (inactive) | GI50 (OVCAR-3): > 0.1 mM (inactive) | GI50 (SF-539): > 0.1 mM (inactive) | GI50 (UACC-257): > 0.1 mM (inactive) | GI50 (SK-MEL-28): > 0.1 mM (inactive) | GI50 (M19-MEL): > 0.1 mM (inactive) | GI50 (A549): > 0.1 mM (inactive) | GI50 (SNB-75): > 0.1 mM (inactive) | GI50 (HT-29): > 0.1 mM (inactive) | GI50 (ACHN): > 0.01 mM (inactive) | GI50 (NCI-H23): > 0.1 mM (inactive) | GI50 (NCI-H522): > 0.1 mM (inactive) | GI50 (SNB-19): > 0.1 mM (inactive) | GI50 (HOP-92): > 0.1 mM (inactive) | GI50 (HL-60): > 0.1 mM (inactive) | GI50 (K562): > 0.1 mM (inactive) | GI50 (SK-MEL-2): > 0.1 mM (inactive) | GI50 (UACC-62): > 0.1 mM (inactive) | GI50 (U-251): > 0.1 mM (inactive) | GI50 (HOP-62): > 0.1 mM (inactive) | GI50 (HCT-116): > 0.1 mM (inactive)
